Tests used:
human SGLT1 = biological target: T1, human SGLT1 (Homo sapiens, UniProt P13866); assay: Inhibition of radiolabeled α-MG uptake into COS-7 cells transfected with human SGLT1 (Dixon plot); assay type: cell-based
T1 construct: expressed in transfected cells; host or cells: COS-7
T1 sequence (P13866 1-664): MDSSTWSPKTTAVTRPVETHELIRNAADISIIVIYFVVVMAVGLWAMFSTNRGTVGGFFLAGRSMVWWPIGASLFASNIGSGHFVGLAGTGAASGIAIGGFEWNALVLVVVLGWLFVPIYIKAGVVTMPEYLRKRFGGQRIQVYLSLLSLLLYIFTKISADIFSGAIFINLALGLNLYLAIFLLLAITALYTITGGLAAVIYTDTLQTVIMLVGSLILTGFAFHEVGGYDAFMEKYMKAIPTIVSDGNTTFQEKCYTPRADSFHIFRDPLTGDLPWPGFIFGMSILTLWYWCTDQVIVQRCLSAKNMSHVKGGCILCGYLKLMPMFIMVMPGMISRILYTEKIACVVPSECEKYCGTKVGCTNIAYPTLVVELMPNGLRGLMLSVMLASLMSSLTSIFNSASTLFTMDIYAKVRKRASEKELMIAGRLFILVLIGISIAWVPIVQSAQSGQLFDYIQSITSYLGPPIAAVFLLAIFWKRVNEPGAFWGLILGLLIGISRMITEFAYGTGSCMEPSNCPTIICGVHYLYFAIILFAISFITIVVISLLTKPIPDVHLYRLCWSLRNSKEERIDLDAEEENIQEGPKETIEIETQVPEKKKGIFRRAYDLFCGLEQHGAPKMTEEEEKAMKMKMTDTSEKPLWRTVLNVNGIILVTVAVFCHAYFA
Experimental: (§1) Selective inhibition study. Inhibition constants (Ki) of mizagliflozin for rat and human SGLT1 and SGLT2 were determined measuring concentration-dependent effects of test compound on uptake of radiolabeled methyl-α-D-glucopyranoside (α-MG) into COS-7 cells transiently transfected with cloned SGLT1 or SGLT2. Mizagliflozin was assessed at concentrations from 1 to 30 μM and 3 to 100 μM for human and rat SGLT2, respectively. It was assessed at concentrations from 30 nM to 1 μM and 10 to 30 nM for human and rat SGLT1, respectively. α-MG test concentrations were 0.3 and 1 mM. Data were analyzed and Ki determined using Dixon plots of initial transport rates. […] Inhibition constants were also determined for human SGLT1 and SGLT2.

rat SGLT2 = biological target: T2, rat SGLT2 (Rattus norvegicus, UniProt P53792); assay: Inhibition of radiolabeled α-MG uptake into COS-7 cells transfected with rat SGLT2 (Dixon plot); assay type: cell-based; conditions: α-MG 0.3 and 1 mM
T2 construct: expressed in transfected cells; host or cells: COS-7
T2 sequence (P53792 1-670): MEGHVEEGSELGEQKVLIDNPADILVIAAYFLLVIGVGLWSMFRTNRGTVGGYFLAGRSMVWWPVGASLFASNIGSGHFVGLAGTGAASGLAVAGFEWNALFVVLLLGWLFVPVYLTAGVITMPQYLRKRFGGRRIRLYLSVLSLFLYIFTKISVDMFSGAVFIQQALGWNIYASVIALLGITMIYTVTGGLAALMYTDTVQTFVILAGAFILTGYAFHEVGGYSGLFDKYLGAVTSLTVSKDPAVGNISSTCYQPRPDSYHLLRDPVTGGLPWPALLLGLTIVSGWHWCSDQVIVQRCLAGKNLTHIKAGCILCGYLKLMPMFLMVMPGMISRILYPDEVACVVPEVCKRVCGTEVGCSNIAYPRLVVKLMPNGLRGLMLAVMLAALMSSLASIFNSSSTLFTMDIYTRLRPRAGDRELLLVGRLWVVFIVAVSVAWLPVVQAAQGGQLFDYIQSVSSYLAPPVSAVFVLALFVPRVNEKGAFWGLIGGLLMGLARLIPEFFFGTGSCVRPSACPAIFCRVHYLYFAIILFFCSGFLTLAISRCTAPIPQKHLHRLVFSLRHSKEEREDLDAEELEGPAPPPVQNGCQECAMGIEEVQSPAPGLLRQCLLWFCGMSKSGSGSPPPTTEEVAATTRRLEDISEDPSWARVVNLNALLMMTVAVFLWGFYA
Experimental: as §1

human SGLT2 = biological target: T3, human SGLT2 (Homo sapiens, UniProt P31639); assay: Inhibition of radiolabeled α-MG uptake into COS-7 cells transfected with human SGLT2 (Dixon plot); assay type: cell-based; conditions: α-MG 0.3 and 1 mM, read-out: inhibition constant for human SGLT2
T3 construct: expressed in transfected cells; host or cells: COS-7
T3 sequence (P31639 1-672): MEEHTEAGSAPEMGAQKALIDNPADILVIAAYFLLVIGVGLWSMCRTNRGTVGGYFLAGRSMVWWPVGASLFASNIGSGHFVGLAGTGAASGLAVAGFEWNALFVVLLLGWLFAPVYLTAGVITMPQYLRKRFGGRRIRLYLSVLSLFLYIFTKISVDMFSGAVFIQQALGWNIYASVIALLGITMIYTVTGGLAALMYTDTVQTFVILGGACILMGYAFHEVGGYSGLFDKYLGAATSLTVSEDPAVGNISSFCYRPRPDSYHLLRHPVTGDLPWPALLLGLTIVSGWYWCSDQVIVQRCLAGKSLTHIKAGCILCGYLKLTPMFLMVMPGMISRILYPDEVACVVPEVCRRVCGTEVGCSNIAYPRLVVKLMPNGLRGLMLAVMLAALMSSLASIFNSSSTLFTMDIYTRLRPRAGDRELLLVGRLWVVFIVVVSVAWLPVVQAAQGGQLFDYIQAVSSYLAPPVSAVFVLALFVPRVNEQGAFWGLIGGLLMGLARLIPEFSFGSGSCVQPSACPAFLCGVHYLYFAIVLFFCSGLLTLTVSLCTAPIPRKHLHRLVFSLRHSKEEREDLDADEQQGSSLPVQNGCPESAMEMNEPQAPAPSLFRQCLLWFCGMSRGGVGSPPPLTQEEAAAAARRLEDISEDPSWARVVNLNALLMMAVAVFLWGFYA
Experimental: as §1

[1] = test system: STZ-induced diabetic rats; assay: Oral mixed-carbohydrate tolerance test (OMCTT) in STZ-induced diabetic rats (Example 9); assay type: in vivo, rat; conditions: for Plasma glucose 0 hr: before dosing; for Plasma glucose 0 hr / Plasma glucose 0.5 hr / Plasma glucose 1 hr / Plasma glucose 2 hr / Plasma glucose 3 hr / ΔAUC (0-1) / ΔAUC (0-1) (% of Control): mixed-carbohydrate load, mean ± S.E.M.
Experimental: Study in diabetic rats with mixed carbohydrates. Diabetic rats, induced by intravenous injection of streptozotocin (STZ; 40 mg/kg), were used to determining plasma glucose concentration (PG) 1 hr after oral mixed-carbohydrate tolerance test (OMCTT). […] Blood was collected via the caudal artery immediately before dosing and 0.5, 1, 2, and 3 hr after dosing. The glucose concentration measurement in plasma used Glucose CII-Test Wako kit (Wako Pure Chemicals Industries, Ltd., Osaka, Japan). The variables used for efficacy assessment were the measurement values of the plasma glucose concentration and the area under the curve for plasma glucose concentration through 1 hr after loading (ΔAUC0-1 hr). The ΔAUC0-1 hr for plasma glucose was calculated based on the trapezoid method using the change of plasma glucose concentrations from pre-value (0 hr).

`Cc1cc(OCCCNCC(C)(C)C(N)=O)ccc1Cc1c(O[C@@H]2O[C@H](CO)[C@@H](O)[C@H](O)[C@H]2O)n[nH]c1C(C)C` [mizagliflozin, 3-(3-{4-[3-(β-D-glucopyranosyloxy)-5-isopropyl-1H-pyrazol-4-ylmethyl-]-3-methylphenoxy}propylamino)-2,2-dimethylpropionamide] was tested, and the “mode of inhibition of SGLT1 (Dixon plot intersection pattern)” value (human SGLT1; human SGLT1) was “competitive with substrate”, the Ki (human SGLT1; α-MG 0.3 and 1 mM, COS-7 cells, read-out: inhibition constant for human SGLT1) was 0.027 µM and the Ki (rat SGLT2) was 14 µM. The Ki (human SGLT2) was 8.17 µM, the “Plasma glucose 0 hr” value ([1]; 0.03 mg/kg oral) was 120 ± 9 mg/dL and the “Plasma glucose 0.5 hr” value ([1]; 0.03 mg/kg oral) was 289 ± 43 mg/dL. The “Plasma glucose 1 hr” value ([1]; 0.03 mg/kg oral) was 245 ± 28 mg/dL, the “Plasma glucose 2 hr” value ([1]; 0.03 mg/kg oral) was 129 ± 4 mg/dL and the “Plasma glucose 3 hr” value ([1]; 0.03 mg/kg oral) was 106 ± 4 mg/dL. The “ΔAUC (0-1)” value ([1]; 0.03 mg/kg oral) was 116 ± 25 mg·h/dL, the “ΔAUC (0-1) (% of Control)” value ([1]; 0.03 mg/kg oral) was 71 ± 15 % of Control and the “Plasma glucose 0 hr” value ([1]; 0.1 mg/kg oral) was 128 ± 13 mg/dL. The “Plasma glucose 0.5 hr” value ([1]; 0.1 mg/kg oral) was 261 ± 44 mg/dL, the “Plasma glucose 1 hr” value ([1]; 0.1 mg/kg oral) was 234 ± 37 mg/dL and the “Plasma glucose 2 hr” value ([1]; 0.1 mg/kg oral) was 136 ± 16 mg/dL. The “Plasma glucose 3 hr” value ([1]; 0.1 mg/kg oral) was 98 ± 8 mg/dL, the “ΔAUC (0-1)” value ([1]; 0.1 mg/kg oral) was 93 ± 20 mg·h/dL and the “ΔAUC (0-1) (% of Control)” value ([1]; 0.1 mg/kg oral) was 57 ± 12 % of Control. The “PG elevation after glucose administration” value ([1]; 0.03 and 0.1 mg/kg oral, OMCTT) was “inhibited PG elevation after glucose administration dose dependently”.

Reference: patent US11596644B2, “Method for treating post-prandial hypoglycemia” (AVOLYNT, priority 2018, dated 2023)
